Assay results published in US10968178B2, “IP6K inhibitors” (TAKEDA PHARMACEUTICAL COMPANY LIMITED, priority 2017, dated 2021).

Legend:
Format in all cases: biochemical
[1] = target: T1, human IP6K1 (Homo sapiens, UniProt Q92551); test: IP6K enzyme inhibitory assay (ADP-Glo Kinase Assay), human IP6K1; conditions: compound concentration 0.1 μM; read-out: ADP-Glo method inhibitory rate (%) human IP6K1
T1 construct: human IP6K1 (1-441) gene; GST; made in house; host or cells: Sf-9 insect cells
Method: (§1) IP6K Enzyme Inhibitory Assay
(§2) Human IP6K3 enzyme was prepared by transducing human IP6K3 (1-410) gene into BL21 (DE3) Escherichia coli and purifying by Ni-NTA (nickel-nitrilotriacetic acid) affinity column. […] The enzymes were used after preservation at −70° C. The IP6K enzyme inhibitory activity of the test compound was measured by the following experiment method and using ADP-Glo™ Kinase Assay (manufactured by Promega). A test compound diluted with an assay buffer (20 mM HEPES (pH 7.5), 6 mM MgCl2, 0.01% Tween-20, 1 mM DTT) was first added by 2 μL to a 384 well plate. […] The IP6K enzyme solution diluted with the assay buffer was added by 2 μL to start the enzyme reaction. Incubation was performed at room temperature for a given time (120 min for rat IP6K3 alone, 60 min for others). After incubation at room temperature, ADP-Glo solution prepared according to the protocol of Promega was added by 3 μL to the 384 well plate and reacted at room temperature for 30 min. Thereafter, Kinase-Detection solution was added by 6 μL to the 384 well plate and reacted at room temperature for 60 min. After the reaction, the luminescence intensity was measured by a plate reader Envision (manufactured by PerkinElmer).

[2] = target: T2, human IP6K2 (Homo sapiens, UniProt Q9UHH9); test: IP6K enzyme inhibitory assay (ADP-Glo Kinase Assay), human IP6K2; conditions: compound concentration 0.1 μM; read-out: ADP-Glo method inhibitory rate (%) human IP6K2
T2 construct: human IP6K2 (1-426) gene; GST; made in house; host or cells: Sf-9 insect cells
T2 sequence (Q9UHH9 1-426): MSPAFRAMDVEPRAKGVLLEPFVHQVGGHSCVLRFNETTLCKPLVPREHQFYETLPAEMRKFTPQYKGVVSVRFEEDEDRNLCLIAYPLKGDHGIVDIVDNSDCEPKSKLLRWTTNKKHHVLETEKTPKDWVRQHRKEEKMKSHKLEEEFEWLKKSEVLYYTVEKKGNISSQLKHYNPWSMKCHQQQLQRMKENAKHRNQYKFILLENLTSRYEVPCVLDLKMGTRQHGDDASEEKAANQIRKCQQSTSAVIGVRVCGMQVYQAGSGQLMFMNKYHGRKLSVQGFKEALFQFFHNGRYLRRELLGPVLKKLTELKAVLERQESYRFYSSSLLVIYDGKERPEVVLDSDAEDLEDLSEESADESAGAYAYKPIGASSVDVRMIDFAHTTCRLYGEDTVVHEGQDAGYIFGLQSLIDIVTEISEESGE
Method: as §1, §2

[3] = target: T3, human IP6K3 (Homo sapiens, UniProt Q96PC2); test: IP6K enzyme inhibitory assay (ADP-Glo Kinase Assay), human IP6K3; conditions: compound concentration 0.1 μM; read-out: ADP-Glo method inhibitory rate (%) human IP6K3
T3 construct: human IP6K3 (1-410) gene; made in house; host or cells: BL21 (DE3) Escherichia coli
T3 sequence (Q96PC2 1-410): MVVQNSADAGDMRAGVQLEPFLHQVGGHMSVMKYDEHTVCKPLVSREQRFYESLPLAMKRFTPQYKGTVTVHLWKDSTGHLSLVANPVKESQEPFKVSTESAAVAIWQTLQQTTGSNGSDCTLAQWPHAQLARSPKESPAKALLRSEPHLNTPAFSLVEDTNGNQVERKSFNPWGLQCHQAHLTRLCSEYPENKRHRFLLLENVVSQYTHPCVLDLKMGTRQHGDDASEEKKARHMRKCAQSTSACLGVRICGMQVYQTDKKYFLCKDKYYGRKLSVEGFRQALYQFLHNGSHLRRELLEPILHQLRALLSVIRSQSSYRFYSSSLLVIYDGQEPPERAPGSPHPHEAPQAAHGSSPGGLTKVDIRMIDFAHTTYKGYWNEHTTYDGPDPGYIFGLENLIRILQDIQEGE
Method: as §1, §2

T1 sequence (Q92551 whole entry): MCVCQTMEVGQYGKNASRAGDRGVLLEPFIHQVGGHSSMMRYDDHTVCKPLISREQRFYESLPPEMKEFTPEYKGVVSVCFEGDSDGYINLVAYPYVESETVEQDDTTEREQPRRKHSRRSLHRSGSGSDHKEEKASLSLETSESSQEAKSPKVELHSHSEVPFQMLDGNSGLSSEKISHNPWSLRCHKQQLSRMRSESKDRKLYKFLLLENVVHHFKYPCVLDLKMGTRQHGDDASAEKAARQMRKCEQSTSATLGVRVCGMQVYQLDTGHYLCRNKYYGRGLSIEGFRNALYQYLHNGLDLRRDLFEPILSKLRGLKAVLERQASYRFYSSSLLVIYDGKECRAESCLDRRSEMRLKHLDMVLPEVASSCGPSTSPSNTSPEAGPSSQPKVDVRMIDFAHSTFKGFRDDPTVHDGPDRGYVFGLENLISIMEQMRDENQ

| SMILES | inhibition at 0.1 µM [1] [%] | inhibition at 0.1 µM [2] [%] | inhibition at 0.1 µM [3] [%] |
| --- | --- | --- | --- |
| O=C(O)c1ccc2c(c1)[C@]1(CC[C@@H](Oc3ncccc3Cl)CC1)C(=O)N2 [Example 24, (1r,4r)-4-((3-chloropyridin-2-yl)oxy)-2′-oxo-1′,2′-dihydrospiro[cyclohexane-1,3′-indole]-5′-carboxylic acid] | 86 | 92 | 92 |
| O=C(O)c1ccc2c(c1)[C@]1(CC[C@@H](Oc3ccc(C(F)(F)F)cn3)CC1)C(=O)N2 [Example 25, (1r,4r)-2′-oxo-4-((5-(trifluoromethyl)pyridin-2-yl)oxy)-1′,2′-dihydrospiro[cyclohexane-1,3′-indole]-5′-carboxylic acid] | 95 | 97 | 98 |
| O=C(O)c1ccc2c(c1)[C@]1(CC[C@@H](Oc3ncc(C(F)(F)F)cc3F)CC1)C(=O)N2 [Example 27, (1r,4r)-4-((3-fluoro-5-(trifluoromethyl)pyridin-2-yl)oxy)-2′-oxo-1′,2′-dihydrospiro[cyclohexane-1,3′-indole]-5′-carboxylic acid] | 97 | 93 | 96 |
| O=C(O)c1ccc2c(c1)[C@]1(CC[C@@H](Oc3ncc(C(F)(F)F)cc3Cl)CC1)C(=O)N2 [Example 29, (1r,4r)-4-((3-chloro-5-(trifluoromethyl)pyridin-2-yl)oxy)-2′-oxo-1′,2′-dihydrospiro[cyclohexane-1,3′-indole]-5′-carboxylic acid] | 99 | 96 | 99 |
| O=C(O)c1ccc2c(c1)[C@]1(CC[C@@H](Oc3cc(OCc4ccccc4)ccn3)CC1)C(=O)N2 [Example 30, (1r,4r)-4-((4-(benzyloxy)pyridin-2-yl)oxy)-2′-oxo-1′,2′-dihydrospiro[cyclohexane-1,3′-indole]-5′-carboxylic acid] | 81 | 84 | 97 |
| O=C(O)c1ccc2c(c1)[C@]1(CC[C@@H](Oc3ncc(C4CC4)cc3C(F)(F)F)CC1)C(=O)N2 [Example 31, (1r,4r)-4-((5-cyclopropyl-3-(trifluoromethyl)pyridin-2-yl)oxy)-2′-oxo-1′,2′-dihydrospiro[cyclohexane-1,3′-indole]-5′-carboxylic acid] | 101 | 101 | 100 |
| Cc1ccc(O[C@H]2CC[C@@]3(CC2)C(=O)Nc2ccc(C(=O)O)cc23)cn1 [Example 34, (1r,4r)-4-((6-methylpyridin-3-yl)oxy)-2′-oxo-1′,2′-dihydrospiro[cyclohexane-1,3′-indole]-5′-carboxylic acid] | 63 | 76 | 91 |

Now from value to molecule:

| inhibition at 0.1 µM [1] [%] | inhibition at 0.1 µM [2] [%] | inhibition at 0.1 µM [3] [%] | SMILES |
| --- | --- | --- | --- |
| 98 | 97 | 92 | Cc1ccc(C(F)(F)F)c(O[C@H]2CC[C@@]3(CC2)C(=O)Nc2ccc(C(=O)O)cc23)n1 [Example 26] |
| 95 | 98 | 96 | O=C(O)c1ccc2c(c1)[C@]1(CC[C@@H](Oc3ncc(Cl)cc3C(F)(F)F)CC1)C(=O)N2 [Example 28, (1r,4r)-4-((5-chloro-3-(trifluoromethyl)pyridin-2-yl)oxy)-2′-oxo-1′,2′-dihydrospiro[cyclohexane-1,3′-indole]-5′-carboxylic acid] |
| 63 | 67 | 88 | Cc1ncccc1O[C@H]1CC[C@@]2(CC1)C(=O)Nc1ccc(C(=O)O)cc12 [Example 32, (1r,4r)-4-((2-methylpyridin-3-yl)oxy)-2′-oxo-1′,2′-dihydrospiro[cyclohexane-1,3′-indole]-5′-carboxylic acid] |
| 37 | 40 | 74 | Cc1cncc(O[C@H]2CC[C@@]3(CC2)C(=O)Nc2ccc(C(=O)O)cc23)c1 [Example 33, (1r,4r)-4-((5-methylpyridin-3-yl)oxy)-2′-oxo-1′,2′-dihydrospiro[cyclohexane-1,3′-indole]-5′-carboxylic acid] |
